Assay results from patent US20070066608A1, “Novel indole derivatives with an improved antipsychotic activity” (priority 2003, published 2007).

Legend:
[1] = molecular target: T1, Human Dopamine D2L receptor (Homo sapiens, UniProt P14416); experiment: Radioligand binding experiment for dopamine D2 receptor (hD2), [3H]Spiperone; conditions: membranes of D2L receptor-transfected CHO cells, read-out: pIC50 D2 (converted)
T1 construct: expressed in transfected cells; host or cells: CHO cells
Description: (§1) The interaction of the compounds of Formula (I) with dopamine-receptors, h5HT-transporter and h5HT1A receptor was assessed in in vitro radioligand binding experiments. In general, a low concentration of a radioligand with a high binding affinity for a particular receptor or transporter is incubated with a sample of a tissue preparation enriched in a particular receptor or transporter or with a preparation of cells expressing cloned human receptors in a buffered medium. During the incubation, the radioligand binds to the receptor or transporter. When equilibrium of binding is reached, the receptor bound radioactivity is separated from the non-bound radioactivity, and the receptor- or transporter-bound activity is counted The interaction of the test compounds with the receptor is assessed in competition binding experiments. Various concentrations of the test compound are added to the incubation mixture containing the receptor- or transporter preparation and the radioligand. The test compound in proportion to its binding affinity and its concentration inhibits binding of the radioligand.
Human Dopamine D2L receptor-transfected CHO cells were collected by scraping into ice-cold Tris-HCl buffer ([…], pH 7.4). The suspension was centrifuged (23 500×g, 10 min, 4° C.) and pellets stored at −70° C. until require. They were then thawed and briefly homogenised using an Ultra-Turrax T25 homogeniser prior to dilution to an appropriate protein concentration optimised for specific and non-specific binding. [^3H]Spiperone (NEN, specific activity˜70 Ci/mmol) was diluted in Tris-HCl assay buffer containing NaCl, CaCl2, MgCl2, KCI (50, 120, 2, 1, and 5 mM respectively, adjusted to pH 7.7 with HCl) at a concentration of 2 nmol/L. Prepared radioligand (50 μl) was then incubated (30 min, 37° C.) with membrane preparations pre-diluted to an appropriate protein concentration (400 μl), and with 50 μl of either the 10% DMSO control, Butaclamol (10^−6 mol/L final concentration), or compound of interest. Membrane-bound activity was detected by filtration through a Packard Filtermate harvester onto Unifilterplates, washing with ice-old Tris-HCl buffer (50 mM; pH8.0; 3×4 ml). Filters were allowed to dry before adding scintillation fluid and counting in a Topcount scintillation counter. % Specific bound and competition binding curves were calculated using S-Plus software (Insightful).

Human 5HT1A receptor = molecular target: T2, Human 5HT1A receptor (Homo sapiens, UniProt P08908); experiment: Binding experiment for 5-HT1A receptor, [3H]8OHDPAT; conditions: membranes of 5HT1A receptor-transfected L929 cells, read-out: pIC50 5HT1A (converted)
T2 construct: expressed in transfected cells; host or cells: L929 cells (stably transfected)
T2 sequence (P08908 1-422): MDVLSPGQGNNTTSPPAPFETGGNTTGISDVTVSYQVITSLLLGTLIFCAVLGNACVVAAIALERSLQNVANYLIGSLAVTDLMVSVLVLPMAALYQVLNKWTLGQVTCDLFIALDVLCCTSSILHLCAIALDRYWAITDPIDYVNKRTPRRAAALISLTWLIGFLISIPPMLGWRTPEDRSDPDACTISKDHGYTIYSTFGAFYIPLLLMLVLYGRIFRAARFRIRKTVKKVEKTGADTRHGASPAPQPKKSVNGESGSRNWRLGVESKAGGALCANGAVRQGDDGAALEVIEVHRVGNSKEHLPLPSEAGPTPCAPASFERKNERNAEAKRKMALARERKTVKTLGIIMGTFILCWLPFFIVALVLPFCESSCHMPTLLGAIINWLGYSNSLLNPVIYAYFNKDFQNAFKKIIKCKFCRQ
Description: as §1
Human 5HT1A receptor-transfected L929 cells were collected by scraping into ice-cold Tris-HCl buffer (50 mM, pH 7.4). The suspension was centrifuged (23 500×g, 10 min, 4° C.) and pellets stored at −70° C. until required. They were then thawed and briefly homogenised using an Ultra-Turrax T25 homogeniser prior to dilution to an appropriate protein concentration optimised for specific and non-specific binding. [^3H]8OHDPAT (NEN, specific activity 127 Ci/mmol) was diluted in Tris-HCl assay buffer containing CaCl2 (50 mM and 4 mM, respectively; pH 7.7) at a concentration of 5 nmol/L. Prepared radioligand (50 μl) was then incubated (30 min, 37° C.) with membrane preparations from L929 cells stably-transfected with the h5HT1A gene construct (400 μl) and with 50 μl of either the 10% DMSO control, spiroxatrine (10^−6 mol/L final concentration), or compound of interest. Membrane-bound activity was detected by filtration through a Packard Filtermate harvester onto Unifaltemplates, washing with ice-cold Tris-HCI buffer (3×4 ml), followed by drying. Scintillation fluid was added and membranes were counted in a Topcount scintillation counter. % Specific bound and competition binding curves were calculated using S-Plus software (Insightful).

[2] = molecular target: T3, Human Dopamine D3 receptor (Homo sapiens, UniProt P35462); experiment: Radioligand binding experiment for dopamine D3 receptor (hD3), [125I]Iodosulpride; conditions: membranes of D3 receptor-transfected CHO cells, read-out: pIC50 D3 (converted)
T3 construct: expressed in transfected cells; host or cells: CHO cells
Description: as §1
Human Dopamine D3 receptor-transfected CHO cells were collected by scraping into ice-cold Tris-HCl buffer (50 mM, pH 7.4). The suspension was centrifuged (23 500×g, 10 min, 4° C.) and pellets stored at −70° C. until required. They were then thawed and briefly homogenised using an Ultra-Turrax T25 homogeniser prior to dilution to an appropriate protein concentration optimised for specific and non-specific binding. [^125]Iodosulpride (Amersham, specific activity 2000 Ci/mmol) was diluted in Tris-HCl assay buffer containing NaCl, CaCl2, MgCl2, KCl and BSA (50, 120, 2, 1, 5 mM, 0.1% respectively, adjusted to pH 7.7 with HCl) at a concentration of 2 nmol/L. Prepared radioligand (20 μl) was incubated (60 min, RT) and with 20 μl of either the 10% DMSO control, Risperidone (10^−6 mol/L final concentration), or compound of interest, then with membrane preparations (80 μl). Overnight incubation followed after addition of WGA-coated PVT SPA beads (250 μl; Amersham) and membrane-bound counts measured in a Wallac Microbeta. % Specific bound and competition binding curves were calculated using S-Plus software (Insightful).

T1 sequence (P14416 whole entry): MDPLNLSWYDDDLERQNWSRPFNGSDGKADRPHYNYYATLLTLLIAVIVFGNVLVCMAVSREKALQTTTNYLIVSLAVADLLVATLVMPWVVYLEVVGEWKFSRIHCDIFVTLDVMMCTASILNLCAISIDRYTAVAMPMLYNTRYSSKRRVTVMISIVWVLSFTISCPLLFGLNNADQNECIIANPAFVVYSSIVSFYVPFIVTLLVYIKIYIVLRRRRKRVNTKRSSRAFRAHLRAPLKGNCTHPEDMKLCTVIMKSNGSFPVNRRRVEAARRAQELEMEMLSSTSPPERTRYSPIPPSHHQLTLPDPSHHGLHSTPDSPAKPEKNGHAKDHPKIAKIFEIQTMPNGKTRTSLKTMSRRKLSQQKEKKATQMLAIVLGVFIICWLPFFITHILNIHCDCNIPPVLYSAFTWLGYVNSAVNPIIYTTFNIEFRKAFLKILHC
T3 sequence (P35462 whole entry): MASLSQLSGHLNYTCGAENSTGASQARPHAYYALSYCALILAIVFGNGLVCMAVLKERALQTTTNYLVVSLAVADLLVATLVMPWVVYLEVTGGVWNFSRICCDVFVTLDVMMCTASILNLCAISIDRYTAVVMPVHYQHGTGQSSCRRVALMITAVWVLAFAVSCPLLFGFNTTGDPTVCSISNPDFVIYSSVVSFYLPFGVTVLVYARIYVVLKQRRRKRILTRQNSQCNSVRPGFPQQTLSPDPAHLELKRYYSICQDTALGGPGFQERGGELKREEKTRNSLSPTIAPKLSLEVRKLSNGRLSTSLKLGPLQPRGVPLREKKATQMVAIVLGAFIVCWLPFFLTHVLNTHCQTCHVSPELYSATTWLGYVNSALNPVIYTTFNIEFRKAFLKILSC

Fc1ccc2[nH]cc(C3=CCN(CC4Oc5cccnc5O4)CC3)c2c1 (stereo not drawn) [Compound 7]
IC50 [1]: 251 nM
IC50 (Human 5HT1A receptor): 398 nM
IC50 [2]: 15.8 nM
